Measurements: PubChem BioAssay (NCI)
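Protocol summary: plate cells (96-well), add compound at 5 concentrations, incubate 48 h, interpolate endpoints linearly. At the TGI there is no net growth.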

What was measured:
Assay in all cases: NCI-60 cell line screen, 48 h
[1] = tested on: 786-0 renal
[2] = tested on: A549 NSCLC
[3] = tested on: ACHN renal
[4] = tested on: BT-549 breast
[5] = tested on: CAKI-1 renal
[6] = tested on: CCRF-CEM leukemia
[7] = tested on: COLO 205 colon
[8] = tested on: DU-145 prostate
[9] = tested on: EKVX NSCLC
[10] = tested on: HCC-2998 colon
[11] = tested on: HCT-116 colon
[12] = tested on: HCT-15 colon
[13] = tested on: HL-60(TB) leukemia
[14] = tested on: HOP-62 NSCLC
[15] = tested on: HOP-92 NSCLC
[16] = tested on: HT29 colon
[17] = tested on: IGROV1 ovarian
[18] = tested on: K-562 leukemia
[19] = tested on: KM12 colon
[20] = tested on: LOX IMVI melanoma
[21] = tested on: M14 melanoma
[22] = tested on: MALME-3M melanoma
[23] = tested on: MCF7 breast
[24] = tested on: MDA-MB-231 breast
[25] = tested on: MDA-N
[26] = tested on: MOLT-4 leukemia
[27] = tested on: NCI-H226 lung
[28] = tested on: NCI-H23 lung
[29] = tested on: NCI-H460 lung
[30] = tested on: NCI-H522 lung
[31] = tested on: NCI/ADR-RES ovarian
[32] = tested on: OVCAR-3 ovarian
[33] = tested on: OVCAR-4 ovarian
[34] = tested on: OVCAR-5 ovarian
[35] = tested on: OVCAR-8 ovarian
[36] = tested on: PC-3 prostate
[37] = tested on: RPMI-8226 leukemia
[38] = tested on: RXF 393 renal
[39] = tested on: SF-268 CNS
[40] = tested on: SF-295 CNS
[41] = tested on: SF-539 CNS
[42] = tested on: SK-MEL-2 melanoma
[43] = tested on: SK-MEL-28 melanoma
[44] = tested on: SK-MEL-5 melanoma
[45] = tested on: SK-OV-3 ovarian
[46] = tested on: SN12C renal
[47] = tested on: SNB-19 CNS
[48] = tested on: SR leukemia
[49] = tested on: SW-620 colon
[50] = tested on: T-47D breast
[51] = tested on: TK-10 renal
[52] = tested on: U251 CNS
[53] = tested on: UACC-257 melanoma
[54] = tested on: UACC-62 melanoma
[55] = tested on: UO-31 renal
[56] = tested on: A498 renal
[57] = tested on: HS 578T breast
[58] = tested on: MDA-MB-435
[59] = tested on: SNB-75 CNS

O=C1/C(=C/c2ccc(Cl)cc2)CSC/C1=C\c1ccc(Cl)cc1
TGI [1]: 9.73 µM
TGI [2]: 10.1 µM
TGI [3]: 12.6 µM
TGI [4]: 4.99 µM
TGI [5]: 11.8 µM
TGI [6]: 63.9 µM
TGI [7]: 7.26 µM
TGI [8]: 24.8 µM
TGI [9]: 41.7 µM
TGI [10]: 4.09 µM
TGI [11]: 3.69 µM
TGI [12]: > 100 µM
TGI [13]: 3.69 µM
TGI [14]: 16.2 µM
TGI [15]: 43.2 µM
TGI [16]: 4.81 µM
TGI [17]: 3.65 µM
TGI [18]: 10.1 µM
TGI [19]: 4.47 µM
TGI [20]: 5.3 µM
TGI [21]: 3.92 µM
TGI [22]: 36.9 µM
TGI [23]: 13.1 µM
TGI [24]: 27.2 µM
TGI [25]: 10.6 µM
TGI [26]: 9 µM
TGI [27]: 5.59 µM
TGI [28]: 11.8 µM
TGI [29]: 30.5 µM
TGI [30]: 15.2 µM
TGI [31]: > 100 µM
TGI [32]: 8.11 µM
TGI [33]: 14.1 µM
TGI [34]: 5.57 µM
TGI [35]: 13.8 µM
TGI [36]: 16 µM
TGI [37]: 5 µM
TGI [38]: 3.36 µM
TGI [39]: 22 µM
TGI [40]: 4.21 µM
TGI [41]: 9.26 µM
TGI [42]: 37.8 µM
TGI [43]: 5.51 µM
TGI [44]: 10.6 µM
TGI [45]: 16.5 µM
TGI [46]: 9.52 µM
TGI [47]: 17 µM
TGI [48]: 8.15 µM
TGI [49]: 13.4 µM
TGI [50]: 23.2 µM
TGI [51]: 13 µM
TGI [52]: 3.04 µM
TGI [53]: 5.08 µM
TGI [54]: 2.83 µM
TGI [55]: 3.93 µM

c1ccc([P+](CCCCCC[P+](c2ccccc2)(c2ccccc2)c2ccccc2)(c2ccccc2)c2ccccc2)cc1
TGI [1]: > 100 µM
TGI [56]: > 100 µM
TGI [2]: > 100 µM
TGI [3]: > 100 µM
TGI [5]: > 100 µM
TGI [6]: > 100 µM
TGI [7]: 13.8 µM
TGI [8]: > 100 µM
TGI [9]: > 100 µM
TGI [10]: > 100 µM
TGI [11]: > 100 µM
TGI [12]: > 100 µM
TGI [13]: 67 µM
TGI [14]: > 100 µM
TGI [15]: 66.7 µM
TGI [57]: > 100 µM
TGI [16]: > 100 µM
TGI [17]: 30.8 µM
TGI [18]: > 100 µM
TGI [19]: 63.2 µM
TGI [20]: 38.6 µM
TGI [21]: > 100 µM
TGI [22]: > 100 µM
TGI [23]: 74.1 µM
TGI [24]: > 100 µM
TGI [58]: 72.9 µM
TGI [25]: 54.9 µM
TGI [26]: > 100 µM
TGI [27]: > 100 µM
TGI [28]: 69.6 µM
TGI [29]: > 100 µM
TGI [30]: > 100 µM
TGI [31]: > 100 µM
TGI [32]: > 100 µM
TGI [33]: > 100 µM
TGI [34]: > 100 µM
TGI [35]: 71.2 µM
TGI [36]: > 100 µM
TGI [38]: > 100 µM
TGI [39]: > 100 µM
TGI [40]: > 100 µM
TGI [41]: 39 µM
TGI [43]: > 100 µM
TGI [45]: > 100 µM
TGI [46]: > 100 µM
TGI [47]: > 100 µM
TGI [59]: > 100 µM
TGI [48]: > 100 µM
TGI [49]: > 100 µM
TGI [50]: > 100 µM
TGI [51]: > 100 µM
TGI [52]: > 100 µM
TGI [53]: 8.64 µM
TGI [54]: > 100 µM
TGI [55]: > 100 µM
